Numbered stars: 1 amine (or outer) side, 2 acyl side, 3 side chain; on linkers, the order of the positions; unused ones are H or OH. Bridge positions count the residues as written; N and C are the ends. Square brackets hold non-standard residues; d marks the D form. Peptide text beside a SMILES is read from it. * marks the point of attachment. C20 diacid = O=C(O)CCCCCCCCCCCCCCCCCCC(=O)*; γGlu = O=C(O)[C@H](CCC(=O)[*:2])N[*:1]; Hyp = O=C(O)[C@@H]1C[C@@H](O)CN1; NMeI = CC[C@H](C)[C@H](NC)C(=O)O; Orn = NCCC[C@H](N)C(=O)O; Sar = CNCC(=O)O
How the values were obtained:
[1] = target: T1, recombinant human calcitonin receptor (hCT-R) (Homo sapiens, UniProt P30988); test: hCT-R cAMP assay (AlphaScreen) in 1321N1 cells; type: cell-based; settings: cAMP formation, 45 min stimulation
T1 construct: host or cells: human astrocytoma cell line 1321N1
T1 sequence (P30988 25-474): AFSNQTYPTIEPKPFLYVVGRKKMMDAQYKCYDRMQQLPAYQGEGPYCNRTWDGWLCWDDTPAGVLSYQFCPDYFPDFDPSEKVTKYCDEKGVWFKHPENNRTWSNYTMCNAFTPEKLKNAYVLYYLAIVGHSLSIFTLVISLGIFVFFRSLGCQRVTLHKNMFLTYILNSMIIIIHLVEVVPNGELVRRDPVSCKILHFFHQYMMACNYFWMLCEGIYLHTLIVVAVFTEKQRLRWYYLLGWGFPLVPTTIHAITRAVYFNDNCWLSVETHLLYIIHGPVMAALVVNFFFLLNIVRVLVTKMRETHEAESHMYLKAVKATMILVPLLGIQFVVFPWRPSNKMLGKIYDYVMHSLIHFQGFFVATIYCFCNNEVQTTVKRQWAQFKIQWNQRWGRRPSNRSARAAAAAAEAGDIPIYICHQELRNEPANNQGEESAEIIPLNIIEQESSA
In short: (§1)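 EC50 values come from curve fits over at least 7 peptide concentrations, with cAMP read by AlphaScreen competition after 1 h in the dark. Cells were 1321N1 lines carrying human calcitonin receptor, with RAMP3 co-expressed for AMY3, treated 45 min at room temperature in the presence of IBMX.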

[2] = target: T2, recombinant human amylin 3 receptor (hAMYR3) (Homo sapiens, UniProt O60896+P30988); test: hAMYR3 cAMP assay (AlphaScreen) in 1321N1 cells; type: cell-based; settings: cAMP formation, 45 min stimulation
T2 construct: host or cells: human astrocytoma cell line 1321N1
T2 sequence (P30988 25-474): T1 sequence (P30988 25-474)
T2 sequence (O60896 24-148 partner): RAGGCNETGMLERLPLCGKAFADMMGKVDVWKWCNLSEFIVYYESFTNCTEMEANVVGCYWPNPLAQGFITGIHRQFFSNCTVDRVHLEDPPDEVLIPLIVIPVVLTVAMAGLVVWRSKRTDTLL
In short: as §1

[3] = Assessment of physical stability: fibril formation by Thioflavin T fluorescence; type: physicochemical; design: key: FND = fibrillation not detected; FD = fibrillation detected; settings: 1 mg/mL peptide; for Fibrillation (in buffer) pH4 acetate: 50 mM acetate buffer pH 4.0, 96 hours at 40° C.; for Fibrillation (in buffer) pH7 histidine: 50 mM histidine buffer pH 7.0, 96 hours at 40° C.; for Fibrillation (in buffer) pH7 phosphate: 50 mM phosphate buffer pH 7.0, 96 hours at 40° C.
Protocol: Solutions containing (i) 1 mg/mL of test peptide, 40 μM ThT and 50 mM phosphate (Ph) buffer (pH 7.0), (ii) 1 mg/mL of test peptide, 40 μM ThT and 50 mM histidine (His) buffer (pH 7.0), and (iii) 1 mg/mL of test peptide, 40 μM ThT and 50 mM acetate (Ac) buffer (pH 4.0), were loaded in a 96-well black fluorescence plate (clear bottom) in triplicate. Data were collected at fixed intervals of 10 min, each preceded by 300 s of automixing (agitation), over a period of 96 hours at 40° C. Physical stability is determined by measuring the fluorescence intensity over time. A significant increase in intensity is rated as fibrillation detected (FD).

[4] = Assessment of chemical stability in 40 mM buffers at 40° C. (RP-HPLC); type: physicochemical; settings: 1 mg/mL; for % degradation after 72 h at 40° C. pH4 acetate: acetate buffer pH 4, 72 h; for % degradation after 72 h at 40° C. pH6 phosphate: phosphate buffer pH 6, 72 h; for % degradation after 72 h at 40° C. pH7 phosphate: phosphate buffer pH 7, 72 h
Protocol: Samples of each test peptide were dissolved in acetate buffer pH 4 and phosphate buffer pH 6 and 7 (all buffer 40 mM). The final peptide concentration was 1 mg/mL. Samples were placed in glass vials and incubated at 40° C. The samples were analyzed by RP-HPLC on a C8 column with gradient elution using a trifluoroacetic acid/acetonitrile/water eluent system. The area-percentage (area-%) of the main peak was determined by UV spectroscopy at 220 nm at each sampling time point.
The % degradation was calculated by subtracting the […].
The results of the chemical stability assessment after 3 days of incubation time are summarized as % degradation in Table 1 (below).
The results of the chemical stability assessment after 14 days of incubation time are summarized as % degradation in Table 2 (below).

| Compound | EC50 [1] | EC50 [2] | Fibrillation (in buffer) pH4 acetate [3] | Fibrillation (in buffer) pH7 histidine [3] | Fibrillation (in buffer) pH7 phosphate [3] | % degradation after 72 h at 40° C. pH4 acetate [4] | % degradation after 72 h at 40° C. pH6 phosphate [4] | % degradation after 72 h at 40° C. pH7 phosphate [4] | % degradation after 14 days at 40° C. pH4 acetate ([4]; acetate buffer pH 4, 14 days) | % degradation after 14 days at 40° C. pH6 phosphate ([4]; phosphate buffer pH 6, 14 days) | % degradation after 14 days at 40° C. pH7 phosphate ([4]; phosphate buffer pH 7, 14 days) |
| --- | --- | --- | --- | --- | --- | --- | --- | --- | --- | --- | --- |
| CC[C@H](C)[C@@H](C(=O)N[C@@H](CC(C)C)C(=O)N[C@@H](CO)C(=O)N[C@@H](CO)C(=O)N[C@H](C(=O)N[C@@H](CCC(=O)O)C(=O)N[C@H](C(=O)NCC(=O)N[C@@H](CO)C(=O)N[C@@H](CC(N)=O)C(=O)N[C@H](C(=O)N1C[C@H](O)C[C@H]1C(N)=O)[C@@H](C)O)C(C)C)[C@@H](C)O)N(C)C(=O)[C@H](C)NC(=O)CN(C)C(=O)[C@H](Cc1ccccc1)NC(=O)[C@H](CO)NC(=O)[C@H](CO)NC(=O)[C@H](CCCNC(=N)N)NC(=O)[C@H](CCC(N)=O)NC(=O)[C@H](CC(C)C)NC(=O)[C@H](Cc1ccccc1)NC(=O)[C@H](Cc1c[nH]cn1)NC(=O)[C@H](C)NC(=O)[C@H](CC(C)C)NC(=O)[C@H](CCCNC(=N)N)NC(=O)[C@H](CCC(N)=O)NC(=O)[C@@H](NC(=O)[C@H](C)NC(=O)[C@@H]1CCCNC(=O)C[C@H](NC(=O)[C@H](CCCNC(=N)N)NC(=O)CC[C@H](NC(=O)CCCCCCCCCCCCCCCCCCC(=O)O)C(=O)O)C(=O)NCC(=O)N[C@@H]([C@@H](C)O)C(=O)N[C@@H](C)C(=O)N[C@@H]([C@@H](C)O)C(=O)N1)[C@@H](C)O [Compound 8, [19CD]-isoGlu-RD()GTAT-Orn()-ATQRLAHFLQRSSF-Gly(Me)-A-Ile(Me)-LSSTEVGSNT-Hyp-NH2] ({C20 diacid-γGlu}-RDGTAT[Orn]ATQRLAHFLQRSSF[Sar]A[NMeI]LSSTEVGSNT[Hyp]-NH2; lactam 2-7) | 0.129 nM | 0.059 nM | FND | FND | FND | <1% | <1% | <1% | – | – | – |
| CC[C@H](C)[C@@H](C(=O)N[C@@H](CC(C)C)C(=O)N[C@@H](CO)C(=O)N[C@@H](CO)C(=O)N[C@H](C(=O)N[C@@H](CCC(=O)O)C(=O)N[C@H](C(=O)NCC(=O)N[C@@H](CO)C(=O)N[C@@H](CC(N)=O)C(=O)N[C@H](C(=O)N1C[C@H](O)C[C@H]1C(N)=O)[C@@H](C)O)C(C)C)[C@@H](C)O)N(C)C(=O)[C@H](C)NC(=O)CN(C)C(=O)[C@H](Cc1ccccc1)NC(=O)[C@H](CO)NC(=O)[C@H](CO)NC(=O)[C@H](CCCNC(=N)N)NC(=O)[C@H](CCC(N)=O)NC(=O)[C@H](CC(C)C)NC(=O)[C@H](Cc1ccccc1)NC(=O)[C@H](CCCNC(=N)N)NC(=O)[C@H](C)NC(=O)[C@H](CC(C)C)NC(=O)[C@H](CCCNC(=N)N)NC(=O)[C@H](CCC(=O)O)NC(=O)[C@@H](NC(=O)[C@H](C)NC(=O)[C@@H]1CCCNC(=O)C[C@H](NC(=O)[C@H](CCCNC(=N)N)NC(=O)CC[C@H](NC(=O)CCCCCCCCCCCCCCCCCCC(=O)O)C(=O)O)C(=O)NCC(=O)N[C@@H]([C@@H](C)O)C(=O)N[C@@H](C)C(=O)N[C@@H]([C@@H](C)O)C(=O)N1)[C@@H](C)O [Compound 10, [19CD]-isoGlu-RD()GTAT-Orn()-ATERLARFLQRSSF-Gly(Me)-A-Ile(Me)-LSSTEVGSNT-Hyp-NH2] ({C20 diacid-γGlu}-RDGTAT[Orn]ATERLARFLQRSSF[Sar]A[NMeI]LSSTEVGSNT[Hyp]-NH2; lactam 2-7) | 0.345 nM | 0.068 nM | FD | FND | FND | <1% | <1% | <1% | 1.9% | 1.8% | 9.1% |
| CC[C@H](C)[C@@H](C(=O)N[C@@H](CC(C)C)C(=O)N[C@@H](CO)C(=O)N[C@@H](CO)C(=O)N[C@H](C(=O)N[C@@H](CCC(=O)O)C(=O)N[C@H](C(=O)NCC(=O)N[C@@H](CO)C(=O)N[C@@H](CC(N)=O)C(=O)N[C@H](C(=O)N1C[C@H](O)C[C@H]1C(N)=O)[C@@H](C)O)C(C)C)[C@@H](C)O)N(C)C(=O)[C@H](C)NC(=O)CN(C)C(=O)[C@H](Cc1ccccc1)NC(=O)[C@H](CO)NC(=O)[C@H](CO)NC(=O)[C@H](CCCNC(=N)N)NC(=O)[C@H](CCC(N)=O)NC(=O)[C@H](CC(C)C)NC(=O)[C@H](Cc1ccccc1)NC(=O)[C@H](Cc1c[nH]cn1)NC(=O)[C@H](C)NC(=O)[C@H](CC(C)C)NC(=O)[C@H](CCCNC(=N)N)NC(=O)[C@H](CCC(=O)O)NC(=O)[C@@H](NC(=O)[C@H](C)NC(=O)[C@@H]1CCCCNC(=O)C[C@H](NC(=O)[C@H](CCC(=O)O)NC(=O)CC[C@H](NC(=O)CCCCCCCCCCCCCCCCCCC(=O)O)C(=O)O)C(=O)NCC(=O)N[C@@H]([C@@H](C)O)C(=O)N[C@@H](C)C(=O)N[C@@H]([C@@H](C)O)C(=O)N1)[C@@H](C)O [Compound 11, [19CD]-isoGlu-ED()GTATK()ATERLAHFLQRSSF-Gly(Me)-A-Ile(Me)-LSSTEVGSNT-Hyp-NH2] ({C20 diacid-γGlu}-EDGTATKATERLAHFLQRSSF[Sar]A[NMeI]LSSTEVGSNT[Hyp]-NH2; lactam 2-7) | 0.068 nM | 0.024 nM | FND | FND | FND | <1% | <1% | <1% | – | – | – |
| CC[C@H](C)[C@@H](C(=O)N[C@@H](CC(C)C)C(=O)N[C@@H](CO)C(=O)N[C@@H](CO)C(=O)N[C@H](C(=O)N[C@@H](CCC(=O)O)C(=O)N[C@H](C(=O)NCC(=O)N[C@@H](CO)C(=O)N[C@@H](CC(N)=O)C(=O)N[C@H](C(=O)N1C[C@H](O)C[C@H]1C(N)=O)[C@@H](C)O)[C@@H](C)O)[C@@H](C)O)N(C)C(=O)[C@H](C)NC(=O)CN(C)C(=O)[C@H](Cc1ccccc1)NC(=O)[C@H](CO)NC(=O)[C@H](CO)NC(=O)[C@H](CCCNC(=N)N)NC(=O)[C@H](CCC(N)=O)NC(=O)[C@H](CC(C)C)NC(=O)[C@H](Cc1ccccc1)NC(=O)[C@H](CC(N)=O)NC(=O)[C@H](C)NC(=O)[C@H](CC(C)C)NC(=O)[C@H](CCCNC(=N)N)NC(=O)[C@H](CCC(N)=O)NC(=O)[C@@H](NC(=O)[C@H](C)NC(=O)[C@@H]1CCCCNC(=O)C[C@H](NC(=O)[C@H](CCCCN)NC(=O)CC[C@H](NC(=O)CCCCCCCCCCCCCCCCCCC(=O)O)C(=O)O)C(=O)NCC(=O)N[C@@H]([C@@H](C)O)C(=O)N[C@@H](C)C(=O)N[C@@H]([C@@H](C)O)C(=O)N1)[C@@H](C)O [Compound 44, [19CD]-isoGlu-KD()GTATK()ATQRLANFLQRSSF-Gly(Me)-A-Ile(Me)-LSSTETGSNT-Hyp-NH2] ({C20 diacid-γGlu}-KDGTATKATQRLANFLQRSSF[Sar]A[NMeI]LSSTETGSNT[Hyp]-NH2; lactam 2-7) | 0.02 nM | 0.009 nM | FD | FND | FND | – | – | – | – | – | – |
